In ChEMBL document CHEMBL5154799, “Discovery of a Novel Stilbene Derivative as a Microtubule Targeting Agent Capable of Inducing Cell Ferroptosis” (J Med Chem, 2022):
pIC50: −log10 of the molar value. Active and inactive are the calls of the source. The rule behind the calls is not given here.

Tests used:
[1] = molecular target: T1, Tubulin (Homo sapiens) (UniProt P68371+Q9H4B7+P0DPH7+P68366+Q13509+Q71U36+P04350+Q3ZCM7+P07437+P68363+Q9BQE3+Q6PEY2+Q13885+Q9BVA1+Q9BUF5); experiment: Inhibition of [3H]colchicine binding to tubulin (unknown origin) at 10 uM by competitive binding assay relative to control; format: protein-complex assay
[2] = MRT in ICR mouse at 10 mg/kg, po single administration measured for 24 hrs post treatment by LC-MS/MS analysis; format: ADME, organism-based; details: in vivo
[3] = system: A549; experiment: In vivo antitumor activity against human A549 cells xenografted in athymic nude BALB/c mouse assessed as tumor growth inhibition at 10 mg/kg measured after 30 days relative to control; format: functional; details: A549, 720 h, time 30 day, read-out: TGI
[4] = system: A549; experiment: In vivo antitumor activity against human A549 cells xenografted in athymic nude BALB/c mouse assessed as tumor weight at 10 mg/kg measured after 30 days (reference value: 1 gram); format: functional; details: time 30 day
[5] = AUC (0 to t) in ICR mouse at 10 mg/kg, po single administration measured for 24 hrs post treatment by LC-MS/MS analysis; format: ADME, organism-based; details: in vivo
[6] = MRT in ICR mouse at 1 mg/kg, iv single administration measured for 24 hrs post treatment by LC-MS/MS analysis; format: ADME, organism-based; details: in vivo
[7] = Toxicity in human A549 cells xenografted in athymic nude BALB/c nude mouse assessed as morphological changes in kidney at 10 mg/kg, ip measured after 30 days by H and E staining based histological analysis; format: organism-based; details: in vivo, 720 h, time 30 day
[8] = Selectivity ratio of IC50 for cytotoxicity against human L02 cells assessed as reduction in cell viability to IC50 for cytotoxicity against human A549 cells assessed as reduction in cell viability; format: toxicity, cell-based; details: L02 cells versus A549 cells
[9] = Acute toxicity in rat assessed as median lethal dose after at 175 to 550 mg/kg for 14 days; format: organism-based; details: in vivo, dose 175-550 mg/kg, time 14 day
[10] = system: LoVo; experiment: Antiproliferative activity against human LoVo cells assessed as inhibition of cell proliferation incubated for 2 hrs by CCK-8 assay; format: functional, cell-based; details: DDE = dose-dependent effect
[11] = system: A549; experiment: In vivo antitumor activity against human A549 cells xenografted in athymic nude BALB/c mouse assessed as tumor volume at 10 mg/kg measured after 30 days (reference value: 1503.3 mm^3); format: functional; details: time 30 day
[12] = Toxicity in human A549 cells xenografted in athymic nude BALB/c nude mouse assessed as morphological changes in heart at 10 mg/kg, ip measured after 30 days by H and E staining based histological analysis; format: organism-based; details: in vivo, 720 h, time 30 day
[13] = molecular target: T2, Phospholipid hydroperoxide glutathione peroxidase GPX4 (Homo sapiens) (UniProt P36969); experiment: Inhibition of GPX4 in human A549 cells assessed as decrease in GPX4 protein […] at 5 to 20 uM for 24 hrs by Western blotting analysis; format: cell-based; details: dose 5-20 µM
T2 sequence (whole entry): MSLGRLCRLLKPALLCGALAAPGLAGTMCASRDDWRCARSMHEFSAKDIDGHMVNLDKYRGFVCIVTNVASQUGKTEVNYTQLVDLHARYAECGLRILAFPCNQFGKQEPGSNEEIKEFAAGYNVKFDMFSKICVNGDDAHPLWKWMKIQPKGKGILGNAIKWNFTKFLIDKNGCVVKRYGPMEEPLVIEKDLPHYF

[14] = system: HCT-8; experiment: Antiproliferative activity against human HCT-8 cells assessed as cell viability incubated for 48 hrs by MTT assay; format: functional, cell-based; details: HCT-8, 48 h
[15] = system: A549; experiment: Induction of apoptosis in human A549 cells assessed as cell viability pretreated with ferroptosis inhibitor ferrostatin-1 for 24 hrs followed by incubation with compound at 20 nM and measured after 48 hrs by CCK-8 assay; format: functional, cell-based
[16] = system: A549; experiment: Antiproliferative activity against human adriamycin-resistant A549/ADR cells assessed as cell viability incubated for 48 hrs by MTT assay; format: functional, cell-based; details: A549, 48 h
[17] = AUC (0 to t) in ICR mouse at 1 mg/kg, iv single administration measured for 24 hrs post treatment by LC-MS/MS analysis; format: ADME, organism-based; details: in vivo
[18] = system: A2780; experiment: Antiproliferative activity against human paclitaxel-resistant A2780/TAX cells assessed as cell viability incubated for 48 hrs by MTT assay; format: functional, cell-based; details: A2780, 48 h
[19] = Clearance in ICR mouse at 1 mg/kg, iv single administration measured for 24 hrs post treatment by LC-MS/MS analysis; format: ADME, organism-based; details: in vivo
[20] = molecular target: T1, Tubulin (Homo sapiens); experiment: Induction of microtubule disruption in human A549 cells assessed as shrunken spindle shaped microtubule structure at 5 to 20 uM incubated for 12 hrs by immunofluorescence based laser scanning confocal microscopic analysis; format: cell-based; details: dose 5-20 µM
[21] = system: A549; experiment: Induction of cell death in human A549 cells assessed as vanished mitochondrial cristae at 10 nM for 12 hrs by TEM analysis; format: functional, cell-based
[22] = system: HeLa; experiment: Antiproliferative activity against human HeLa cells assessed as cell viability incubated for 48 hrs by MTT assay; format: functional, cell-based
[23] = Tmax in ICR mouse at 10 mg/kg, po single administration measured for 24 hrs post treatment by LC-MS/MS analysis; format: ADME, organism-based; details: in vivo
[24] = molecular target: T1, Tubulin (Homo sapiens); experiment: Inhibition of [3H]colchicine binding to tubulin (unknown origin) at 0.075 uM by competitive binding assay relative to control; format: protein-complex assay
[25] = Acute oral toxicity in rat assessed as death at 550 mg/kg measured over 8 hours daily for 14 days; format: organism-based; details: in vivo, 336 h, time 14 day
[26] = molecular target: T1, Tubulin (Homo sapiens); experiment: Inhibition of [3H]colchicine binding to tubulin (unknown origin) at 1.25 uM by competitive binding assay relative to control; format: protein-complex assay
[27] = system: A549; experiment: Induction of ferroptosis in human A549 cells assessed as accumulation of intracellular ROS incubated for 24 hrs by DCFH-DA staining based fluorescence microscopy; format: functional, cell-based; details: dose 5-10 nM, DDE = dose-dependent effect
[28] = system: A549; experiment: Induction of cell death in human A549 cells assessed as increased mitochondrial membrane density at 10 nM for 12 hrs by TEM analysis; format: functional, cell-based
[29] = system: A2780; experiment: Antiproliferative activity against human A2780 cells assessed as cell viability incubated for 48 hrs by MTT assay; format: functional, cell-based; details: A2780, 48 h
[30] = system: A549; experiment: Antiproliferative activity against human A549 cells assessed as inhibition of cell proliferation incubated for 2 hrs by CCK-8 assay; format: functional, cell-based; details: DDE = dose-dependent effect
[31] = system: A2780; experiment: Antiproliferative activity against human A2780 cells assessed as inhibition of cell proliferation incubated for 2 hrs by CCK-8 assay; format: functional, cell-based; details: DDE = dose-dependent effect
[32] = Selectivity ratio of IC50 for cytotoxicity against human MCF-10A cells assessed as reduction in cell viability to IC50 for cytotoxicity against human A549 cells assessed as reduction in cell viability; format: toxicity, cell-based; details: MCF-10A cells versus A549 cells
[33] = molecular target: T1, Tubulin (Homo sapiens); experiment: Inhibition of [3H]colchicine binding to tubulin (unknown origin) at 2.5 uM by competitive binding assay relative to control; format: protein-complex assay
[34] = Toxicity in human A549 cells xenografted in athymic nude BALB/c nude mouse assessed as morphological changes in lung at 10 mg/kg, ip measured after 30 days by H and E staining based histological analysis; format: organism-based; details: in vivo, 720 h, time 30 day
[35] = molecular target: T1, Tubulin (Homo sapiens); experiment: Inhibition of tubulin polymerization (unknown origin) by microplate reader analysis; format: protein-complex assay; details: dose 5-0.16 µM, DDE = dose-dependent effect

Work on C=C(c1cc(OC)c(OC)c(OC)c1)c1ccc(OC)c(O)c1NC(=O)CO yielded an inhibition [1] of 85%, an MRT [2] of 154 min and an inhibition in vivo at 10 mg/kg [3] of 78.6%. For the same compound, the Activity [4] was 0.2 g, the AUCt [5] was 2432.04 h/ng/mL and the MRT [6] was 40.8 min. The Activity [7] was “Non-Toxic”, the selectivity ratio [8] was 145 and the LD50 at 336 h [9] was 327 mg/kg. The Activity [10] was “Dde”, the Activity [11] was 321.1 mm3 and the Activity [12] was “Non-Toxic”. The Activity [13] was “Active”, the pIC50 [14] was 7.40 and the Activity [15] was “Active”. It also gave a pIC50 [16] of 7.70, an AUCt [17] of 350.19 h/ng/mL and a pIC50 [18] of 7.40. The clearance [19] was 47.6 mL/min/kg, the Activity [20] was “Active” and the Activity [21] was “Active”. For the same compound, the pIC50 [22] was 7.70, the Tmax [23] was 15 min and the inhibition [24] was 16.7%. The Activity [25] was “Toxic”, the inhibition [26] was 48.4% and the Activity [27] was “Dde”. For the same compound, the Activity [28] was “Active”, the pIC50 [29] was 7.70 and the Activity [30] was “Dde”. For the same compound, the Activity [31] was “Dde”, the selectivity ratio [32] was 54 and the inhibition [33] was 64.8%. For the same compound, the Activity [34] was “Non-Toxic” and the inhibition [35] was “Dde”.
